Entries after “also recorded” stand apart in the source; their conditions may differ.
Legend:
p34cdc2 kinase = conditions: literature; extracts from human small cell lung cancer cells; cited from earlier work
prostate carcinoma cells = conditions: after 24 hr exposure (Qiao et al., 1994); cited from earlier work
urokinase receptor = conditions: cited from earlier work
[1] = system: different cancer cell lines; test: MTT cell proliferation, different cancer cell lines; format: cell-based, human; conditions: cancer cell lines in vitro
[2] = system: chick chorioallantoic membrane (CAM); test: Chick egg chorioallantoic membrane (CAM) assay, 11-day, established vessels; format: in vivo
Method: According to Ausprunk et al. (1974), capillary angiogenesis in the CAM is completed by day 11. Measurements of intercapillary distances are also consistent with the cessation of capillary growth after day 10. […] The implants were prepared as previously described by Gagliardi et al. (1992), implanted on day 11 and read on day 13.
Comparison of the inhibition of angiogenesis by 70 nmol of
suramin or a equimolar amount of a phosphonic acid agents in the
6-day and 11-day chick egg chorioallantoic (CAM) assay.

[3] = biological target: cyclic AMP-dependent protein kinase; conditions: Mahoney et al., 1990; cited from earlier work
[4] = system: human cerebral meningioma cells; conditions: Schrell et al., 1995; cited from earlier work
[5] = system: human dermal microvascular and porcine pulmonary artery endothelial cells; test: bFGF-stimulated and non-stimulated endothelial cell growth (total protein, total DNA); format: cell-based; conditions: suramin 210 μM
Excerpt: Suramin is a highly charged molecule with six sulfonate groups that are ionized at physiologic pH.

[6] = system: bFGF binding sites of human microvascular endothelial cells; test: I125 bFGF binding to human microvascular endothelial cells; conditions: for percentage of inhibition of I125 bFGF binding: low and high affinity binding sites
Excerpt: However, for the same concentrations of the phosphonic acid agents, the inhibition of growth factor binding was always less than 5% in relation to the control.
However, for the same concentrations of phosphonic acid agents, the inhibition of growth factor binding was always less than 5% in relation to the control.

[7] = system: human microvascular endothelial cells; test: Sensitivity of microvascular versus large vessel endothelium to inhibition; format: cell-based
[8] = system: binding of growth factors to their receptors; conditions: intact cells; cited from earlier work
[9] = system: human microvascular endothelial cells; test: Detachment / toxicity of cultured human microvascular endothelial cells; format: cell-based
DNA synthesis = conditions: Jindal et al. (1990); cited from earlier work
[10] = system: MCF-7 human breast cancer cells; conditions: 48 hr (Foekens et al., 1993); cited from earlier work

Cc1ccc(C(=O)Nc2ccc(S(=O)(=O)O)c3cc(S(=O)(=O)O)cc(S(=O)(=O)O)c23)cc1NC(=O)c1cccc(NC(=O)Nc2cccc(C(=O)Nc3cc(C(=O)Nc4ccc(S(=O)(=O)O)c5cc(S(=O)(=O)O)cc(S(=O)(=O)O)c45)ccc3C)c2)c1 [suramin]
effect on purified cdc2 kinase / tyrosine phosphorylation (p34cdc2 kinase): direct inhibitory effect on purified cdc2 kinase and also modulates the tyrosine phosphorylation of cdc2 kinase
effect on cell cycle (prostate carcinoma cells): slowly arrested in the G1 phase
inhibition of urokinase receptor mediated plasminogen activation (urokinase receptor): specific inhibition of the activity of the urokinase receptor mediated cell surface plasminogen activation system
antiproliferative activity, in words [1]: inhibited cell proliferation in a dose-related manner
11-day CAM % Inhibition ([2]; 70 nmol or equimolar amount): 50%
inhibitory activity in the 11-day CAM, in words ([2]; established vessels): showed antiangiogenic activity; also recorded: clearly affected both the growing and established vascular cells
IC50 [3]: 656 µM
effect on proliferation and cell cycle [4]: inhibited proliferation of human cerebral meningioma cells and increased the percentage of cells in the S and G2/M phase of the cell cycle; also recorded: inhibited meningioma cell proliferation in five different tumor lines by arresting cells in G2-M and S phases of the cell cycle
effect on bFGF stimulation of endothelial cell growth [5]: inhibited the stimulatory effect of bFGF; also recorded: inhibited the growth factor stimulatory effect
percentage of inhibition of I125 bFGF binding ([6]; 25 μM): 9%
percentage of inhibition of I125 bFGF binding ([6]; 70 μM): 96%
effect on bFGF binding, in words ([6]; same molar concentrations as suramin): inhibited I^125 bFGF binding in a dose-related manner
sensitivity of microvascular versus large vessel endothelium [7]: much more sensitive to inhibition
effect on binding of growth factors to their receptors [8]: able to disrupt the binding of growth factors to their receptors in intact cells
floating cells ([9]; 24 hr of treatment): a large number of floating cells
time for detection of suramin toxicity on endothelial cells ([9]; concentrations higher than 200 μM): > 12 h
effect on DNA synthesis (DNA synthesis): inhibitory action of suramin on DNA synthesis
effect on cell cycle [10]: accumulation of MCF-7 human breast cancer cells in the G2-M phase of the cell cycle

From patent US6160166A, “Phosphonated agents and their antiangiogenic and antitumorigenic use” (priority 1999, dated 2000)
